IC50 and inhibition data for 34 molecules are collected here from PubChem BioAssay AID850 (SRMLSC, 2007).

The source made the active and inactive calls. No rule for the calls is given here. Some results are limits rather than exact numbers.

In experiment [1] the test system is Saccharomyces cerevisiae growth inhibition, permissive control. Nature of the experiment: yeast lifespan-shortening chemical project counter-assay, dose-response inhibition of growth under permissive conditions (AID 850).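 Also: growth read as optical density after one day of incubation.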
Experiment in experiment [2]: as above
Particulars: Saccharomyces cerevisiae growth inhibition, permissive control, measured here: maximum growth inhibition, stronger effect = higher value.

For orientation: IC50 means the midpoint of a concentration-inhibition curve. A word on the inhibition: it is the change of the read-out against control, counted positive when it falls. Turning to `CC1=C(C)/C(=N\OS(=O)(=O)c2ccccc2)C=CC1=O`, the IC50 in experiment [1] is 6.14 µM. Further, the inhibition in experiment [2] (at 50 µM) was determined as 99%.
As for `Cc1ccc(N/N=C(\C#N)C(N)=S)c(C)c1`, the IC50 in experiment [1] is > 100 µM (inactive). Moreover, the inhibition in experiment [2] (at 25 µM) was found to be 4.57%.
In the same order, the values of `Cc1oc(-c2ccc3c(c2)OCCO3)cc1C(=O)O` are 47.8 µM and 48.3%.
Turning to `CCOC(=O)/C(=N\Nc1cccc(C(F)(F)F)c1)N(CCOC)CCOC`, the IC50 in experiment [1] was > 100 µM (inactive). The inhibition in experiment [2] (at 12.5 µM) is -1.36%.
With `O=C(CSCc1ccco1)Nc1cc(C(F)(F)F)ccc1N1CCOCC1`, the IC50 in experiment [1] is > 100 µM (inactive). For the same molecule, in experiment [2] (at 0.781 µM), the inhibition was 16.7%.
On to `Cc1ccc(C(=O)Oc2ccc(Cl)c3cccnc23)cc1[N+](=O)[O-]`, for which, in experiment [1], the half-maximal inhibitory concentration (IC50) was 40.6 µM. Moreover, in experiment [2] (at 50 µM), the inhibition is 73.3%.
The like results for `CC(C)(C)n1nc(-c2ccc(Cl)cc2)c2c(N)ncnc21` were, in that order, 1.1 µM and 80.7%.
The like results for `OC(COc1ccc2ccccc2c1Br)Cn1cnc(-c2ccccc2)c1` (stereo not drawn) were, in that order, > 100 µM (inactive) and 20.9%.
In the case of `Oc1c(C(Nc2nc3ccccc3s2)c2ccco2)ccc2cccnc12` (stereo not drawn), the IC50 in experiment [1] is > 100 µM (inactive). The inhibition in experiment [2] (at 50 µM) is 23.2%.
Regarding `CC/C(C)=N/Nc1cccc([N+](=O)[O-])c1`, in experiment [1], the IC50 is 4.11 µM. Also, the inhibition in experiment [2] (at 50 µM) was 98.4%.
In the same order, the values of `Clc1ccc(N=c2ssnc2Cl)cc1` are 32.6 µM and 66.3%.
For `N#CC(c1cccc(Cl)c1)c1ccc2c(C(F)(F)F)cc(C(F)(F)F)nc2n1` (stereo not drawn), in experiment [1], the IC50 is > 100 µM (inactive). Besides, in experiment [2] (at 50 µM), the inhibition is 4.48%.
Consider `Cc1ccc(NC(=S)Nc2ccc(Cl)c(Cl)c2)c(OC(F)F)c1`, for which, in experiment [1], the IC50 was 24.8 µM. Further, the inhibition in experiment [2] (at 50 µM) worked out at 76%.
In the same order, the values of `O=[N+]([O-])c1ccc(N/N=C2/CCCCC2c2ccccn2)cc1` (stereo not drawn) are 1.94 µM and 98.4%.
Regarding `CCCC1COC(Cn2cncn2)(c2ccc(C)cc2)O1` (stereo not drawn), the IC50 in experiment [1] was 1.83 µM. In addition, in experiment [2] (at 25 µM), the inhibition came out at 94.7%.
On to `COc1cc(/C=C2\C(=O)ON=C2c2ccccc2)cc(OC)c1OC`, for which, in experiment [1], the IC50 was > 100 µM (inactive). Besides, the inhibition in experiment [2] (at 0.781 µM) was -2.57%.
For the molecule `Cc1ccccc1OCCCN1C(=O)C(=O)c2cccc(C)c21`, the IC50 in experiment [1] is > 100 µM (inactive). In experiment [2] (at 25 µM), the inhibition came out at 24.9%.
The like results for `C=CCn1cnc2c(c1=O)c1nc3ccccc3nc1n2/N=C/c1cc(OC)c(OC)c(OC)c1` were, in that order, 25.8 µM and 46.7%.
As for `Cc1cccc(N=C2Sc3nc4c(C)c(C)ccc4cc3CN2CCN2CCOCC2)c1`, the IC50 in experiment [1] is 45.1 µM. Besides, the inhibition in experiment [2] (at 50 µM) was found to be 99%.
Turning to `NC(N)=N/N=C/c1ccc(OCc2ccc(Cl)cc2)cc1`, the half-inhibitory concentration (IC50) in experiment [1] is 34.6 µM. For the same molecule, in experiment [2] (at 50 µM), the inhibition was 81.6%.
Take `Cc1ccc(N=Cc2cccc(O)c2O)c(C)c1`: the IC50 in experiment [1] was 16 µM. Further, the inhibition in experiment [2] (at 50 µM) stood at 99.4%.
Turning to `CCCCN=C(NNc1ccc(Br)cc1)C(=O)OCC`, in experiment [1], the concentration for half-maximal inhibition (IC50) is 5.51 µM. For the same molecule, in experiment [2] (at 50 µM), the inhibition was 97.9%.
`O=C(OCn1ncc(Cl)c(Cl)c1=O)c1ccc(F)cc1`: the IC50 in experiment [1] is > 100 µM (inactive). In addition, the inhibition in experiment [2] (at 50 µM) was found to be 23%.
As for `CCCCCCCCCCCCCCCC[n+]1cccc(C(=O)N(CC)CC)c1`, the IC50 in experiment [1] is 1.82 µM. The inhibition in experiment [2] (at 50 µM) is 101%.
As to `NNC(=O)c1cccc(COc2ccc3c(c2)CCC3)c1`, the half-inhibitory concentration (IC50) in experiment [1] was 33.3 µM. Besides, the inhibition in experiment [2] (at 50 µM) was 71%.
As to `Cc1cc(-c2n[nH]c(=S)n2/N=C/c2cc([N+](=O)[O-])ccc2Cl)n[nH]1`, the IC50 in experiment [1] is > 100 µM (inactive). In experiment [2] (at 0.781 µM), the inhibition was -1.78%.
In the case of `COc1ccccc1-c1nnc(NC(=O)C(C)SC2=NCCS2)s1` (stereo not drawn), the IC50 in experiment [1] was > 100 µM (inactive). Further, the inhibition in experiment [2] (at 12.5 µM) worked out at 16.8%.
Turning to `CC(Sc1cccc[n+]1[O-])C(=O)Nc1cccc(S(=O)(=O)N2CCOCC2)c1` (stereo not drawn), the IC50 in experiment [1] is 8.22 µM. In experiment [2] (at 50 µM), the inhibition worked out at 99.8%.
As to `NC(=O)c1sc2nc(-c3ccco3)ccc2c1N`, the IC50 in experiment [1] was > 100 µM (inactive). Moreover, the inhibition in experiment [2] (at 1.563 µM) was determined as 8.46%.
For the molecule `Cc1ccc2nc(/C(C#N)=C\c3ccc([N+](=O)[O-])o3)[nH]c2c1`, in experiment [1], the IC50 was 9.15 µM. In addition, the inhibition in experiment [2] (at 50 µM) was determined as 99.4%.
Consider `O=C(ONC1=NCCCCC1)c1ccc(Cl)cc1`, for which the IC50 in experiment [1] was 7.02 µM. The inhibition in experiment [2] (at 50 µM) was 99.8%.
`O=[N+]([O-])c1cc(/C=N/O)ccc1Sc1ccccc1`: the IC50 in experiment [1] was > 100 µM (inactive). Further, the inhibition in experiment [2] (at 50 µM) is 7.13%.
Take `O=C(Nc1nc(-c2ccccn2)cs1)C1COc2ccccc2O1` (stereo not drawn): the 50% inhibitory concentration (IC50) in experiment [1] was 11.6 µM. In addition, the inhibition in experiment [2] (at 50 µM) amounted to 95.2%.
With `CCOc1cc(C2CC(=O)N3CN(C4CCCCC4)CSC3=C2C#N)ccc1O` (stereo not drawn), the IC50 in experiment [1] is > 100 µM (inactive). In addition, the inhibition in experiment [2] (at 0.781 µM) amounted to 8.66%.
